1 molecule from article PMC9229160 (Pharmaceuticals, 2022) can be followed below.

One may read the Ki as the dissociation constant of the complex between target and ligand, obtained from inhibition or displacement. Low values mean tighter binding, high ones weaker binding.

The target in the experiment is T1, human kappa-opioid receptor (KOR) (Homo sapiens, UniProt P41145).
T1 construct: gene OPRK1
Nature of the experiment: [3H]U69, […] radioligand competition binding, CHO-hKOR membranes; […]GTPγS antagonism (Ke […]).

Molecules are shown by their SMILES.

Take `Cc1c(NC(=O)c2ccc(Cl)cc2)cc(-c2ccccc2)n1CCCN1CCOCC1` [Compound A]: the Ki came to 1350 ± 320 nM.
